# System: Phosphorylation of STAT6 in human A549 cells
# Experiment: Phosphorylated STAT6 (pSTAT6) flow cytometry assay in human A549 cells
# Format: cell-based
# Settings: read-out: STAT6 IL4 pSTAT6 assay in A549 cells: Average IC50
# Description: Example 3. Phosphorylated STAT6 (pSTAT6) Flow Cytometry Assay in Human A549 Cells
# Phosphorylation of STAT6 in human A549 cells was quantitatively measured using flow cytometry technology.
row,Compound,IC50 [nM]
1,COc1ccccc1-c1cc(C2=CCCN(C(=O)CCn3ccnn3)C2)c(F)c2[nH]c(C(=O)N3CCN(c4cc(F)c(F)c5ccc(C)nc45)CC3)cc12 [Example I-907],< 100
2,CCc1nc(C)ccc1-c1cc(C2=CCCN(C(=O)CCn3ccnn3)C2)c(F)c2[nH]c(C(=O)N3CCN(c4ncc(F)cc4OC)CC3)cc12 [Example I-735],< 100
3,COc1ccccc1-c1cc(C2=CCCN(C(=O)CCn3ccnn3)C2)c(F)c2[nH]c(C(=O)N3CCc4cccnc43)cc12 [Example I-848],< 100
4,COc1ccccc1-c1cc(C2=CCCN(C(=O)CCn3ccnn3)C2)c(F)c2[nH]c(C(=O)N3CCN(CCCF)CC3)cc12 [Example I-843],< 100
5,COc1cccnc1N1CCN(C(=O)c2cc3c(-c4cnc(C)c(C)c4OC)cc(C4=CCCN(C(=O)CCn5ccnn5)C4)c(F)c3[nH]2)CC1 [Example I-724],< 100
6,COc1ncccc1-c1cc(C2=CCCN(C(=O)CCn3ccnn3)C2)c(F)c2[nH]c(C(=O)N3CCN(c4ncccc4OC4CC4)CC3)cc12 [Example I-595],< 100
7,COc1ccncc1-c1cc(C2=CCCN(C(=O)CCn3cccn3)C2)c(F)c2[nH]c(C(=O)N3CCN(c4ncc(F)cc4OC)CC3)cc12 [Example I-664],< 100
8,CCSc1ccccc1-c1cc(C2=CCCN(C(=O)CCn3ccnn3)C2)c(F)c2[nH]c(C(=O)N3CCN(c4ncc(F)cc4OC)CC3)cc12 [Example I-679],< 100
9,Cc1cnnn1CCC(=O)N1CCC=C(c2ccc3cc(C(=O)N(C)C)[nH]c3c2)C1 [Example I-827],100 to 1000
10,COc1ccccc1-c1cc(C2=CCCN(C(=O)CCn3ccnn3)C2)c(F)c2[nH]c(C(=O)N3CCN(c4c(C)ccc5c4cnn5C)CC3)cc12 [Example I-928],< 100
11,(1S)-3-[4-(4-ethyl-3-pyridyl)-7-fluoro-2-[4-(5-fluoro-3-methoxy-2-pyridyl)piperazine-1-carbonyl]-1H-indol-6-yl]cyclohex-3-ene-1-carboxylic acid [Example I-809],< 100
12,COc1ccccc1-c1cc(C2=CCCN(C(=O)CCn3ccnn3)C2)c(F)c2[nH]c(C(=O)N3CCN(c4ncccc4C(F)(F)F)CC3)cc12 [Example I-329],< 100
13,COc1ccncc1-c1cc(C2=CCCN(C(=O)CCn3ccnn3)C2)c(F)c2[nH]c(C(=O)N3CCN(c4nc(C)ccc4OC)CC3)cc12 [Example I-433],> 100000
14,COc1cc(C)ncc1-c1cc(C2=CCCN(C(=O)CCn3ccnn3)C2)c(F)c2[nH]c(C(=O)N3CCN(c4ncc(F)cc4OC)CC3)cc12 [Example I-667],> 100000
15,CN(C)C(=O)c1cc2cc(C3=CCCN(C(=O)CCn4ccnn4)C3)cc(NCc3ccc(C(F)(F)F)cc3)c2o1 [Example I-877],100 to 1000
16,COc1cccnc1N1CCN(C(=O)c2cc3c(C4CCC5(CCNCC5)CC4)cc(C4=CCCN(C(=O)CCn5ccnn5)C4)c(F)c3[nH]2)CC1 [Example I-698],10000 to 100000
17,COc1ccccc1-c1cc(C2=CCCN(C(=O)CCn3ccnn3)C2)c(F)c2[nH]c(C(=O)N3CCN(c4ncnc5cccc(F)c45)CC3)cc12 [Example I-929],< 100

row,Compound,IC50 [nM]
1,COc1ccccc1-c1cc(C2=CCCN(C(=O)CCn3ccnn3)C2)c(F)c2[nH]c(C(=O)N3CCN(c4ccc5c(c4)c4ccccc4n5C)CC3)cc12 [Example I-770],1000 to 10000
2,COc1cc(F)cnc1N1CCN(C(=O)c2cc3c(-c4cccc(O)c4)cc(C4=CCCN(C(=O)CCn5ccnn5)C4)c(F)c3[nH]2)CC1 [Example I-615],< 100
3,"CN(C)C(=O)c1cc2c(F)c(C3=CCCN(C(=O)C4Cc5ccccc5CN4C=O)C3)ccc2o1 (stereo not shown) [Example I-374, 4-fluoro-5-(1-(2-formyl-1,2,3,4-tetrahydroisoquinoline-3-carbonyl)-1,2,5,6-tetrahydropyridin-3-yl)-N,N-dimethylbenzofuran-2-carboxamide]",< 100
4,COc1cc(F)cnc1N1CCN(C(=O)c2cc3c(-c4cccc(OC(C)C)c4)cc(C4=CCCN(C(=O)CCn5ccnn5)C4)c(F)c3[nH]2)CC1 [Example I-638],< 100
5,CCc1ccncc1-c1cc(C2=CCCN(C(=O)CCn3ccnn3)C2)c(F)c2[nH]c(C(=O)N3CCN(c4ncccc4OC4CC4)CC3)cc12 [Example I-479],< 100
6,COc1ccccc1-c1cc(C2=CCCN(C(=O)CCn3ccnn3)C2)c(F)c2[nH]c(C(=O)N3CCN(c4c(F)cccc4OC)CC3)cc12 [Example I-367],< 100
7,COc1cc(F)cnc1N1CCN(C(=O)c2cc3c(-c4cc(C)nc(C)c4)cc(C4=CCCN(C(=O)CCn5ccnn5)C4)c(F)c3[nH]2)CC1 [Example I-632],< 100
8,CN(C)C(=O)c1cc2cc(C3=CCCN(C(=O)CCn4ccnn4)C3)cc(NCc3ccc(F)cc3)c2o1 [Example I-872],100 to 1000
9,COc1cc(F)cnc1N1CCN(C(=O)c2cc3c(-c4cncc(C5CC5)c4)cc(C4=CCCN(C(=O)CCn5ccnn5)C4)c(F)c3[nH]2)CC1 [Example I-637],< 100
10,COc1ccccc1-c1cc(C2=CCCN(C(=O)CCn3ccnn3)C2)c(F)c2[nH]c(C(=O)N3CCN(c4ccc5nn(C)cc5c4C)CC3)cc12 [Example I-945],100 to 1000
11,COc1ccncc1-c1cc(C2=CCCN(C(=O)CCn3ccnn3)C2)c(F)c2[nH]c(C(=O)N3CCN(c4ccccn4)C(C)C3)cc12 (stereo not shown) [Example I-568],< 100
12,"C[C@H](Cn1ccnn1)C(=O)N1CCC=C(c2ccc3oc(C(=O)N(C)C)cc3c2)C1 (single isomer, unassigned) [Example I-818]",100 to 1000
13,CCc1cnccc1-c1cc(C2=CCCN(C(C)=O)C2)c(F)c2[nH]c(C(=O)N3CCN(c4ncc(F)cc4OC)CC3)cc12 [Example I-706],10000 to 100000
14,COc1ccccc1-c1cc(C2=CCCN(C(=O)CCn3ccnn3)C2)c(F)c2[nH]c(C(=O)N3CCN(C)C(c4ccccc4)C3)cc12 (stereo not shown) [Example I-911],100 to 1000
15,COc1ccccc1-c1cc(C2=CCCN(C(=O)CCn3ccnn3)C2)c(F)c2[nH]c(C(=O)N3CCN(C4CC(F)(F)C4)CC3)cc12 [Example I-501],10000 to 100000
16,COc1cc(F)cnc1N1CCN(C(=O)c2cc3c(-c4cc(C)ncc4C)cc(C4=CCCN(C(=O)CCn5ccnn5)C4)c(F)c3[nH]2)CC1 [Example I-646],< 100
17,CCc1cc(CC)c(-c2cc(C3=CCCN(C(=O)CCn4cccn4)C3)c(F)c3[nH]c(C(=O)N4CCN(c5nc(C)c(F)cc5OC)CC4)cc23)cn1 [Example I-741],100 to 1000

# The remaining lines, values ahead:
row,IC50 [nM],Compound
1,< 100,COc1cc2ncnc(N3CCN(C(=O)c4cc5c(-c6ccccc6OC)cc(C6=CCCN(C(=O)CCn7ccnn7)C6)c(F)c5[nH]4)CC3)c2cc1O [Example I-955]
2,< 100,CCOc1ccncc1-c1cc(C2=CCCN(C(=O)CCn3ccnn3)C2)c(F)c2[nH]c(C(=O)N3CCN(c4ncc(C)nc4OC)CC3)cc12 [Example I-1041]
3,< 100,COc1cc(F)cnc1N1CCN(C(=O)c2cc3c(-c4ccc(N5C[C@@H](C)O[C@@H](C)C5)nc4)cc(C4=CCCN(C(=O)CCn5ccnn5)C4)c(F)c3[nH]2)CC1 [Example I-1138]
4,< 100,COc1cc(C)c(-c2cc(C3=CCCN(C(=O)CCn4ccnn4)C3)cc3cc(C(=O)N(C)C)oc23)cc1C [Example I-1078]
5,1000 to 10000,CN(C)C(=O)c1cc2c(F)c(C3=CCCN(C(=O)C4Cc5ccccc5CN4C=O)C3)ccc2o1 (stereo not shown) [Example I-1192]
6,< 100,COc1cc(F)cnc1N1CCN(C(=O)c2cc3c(-c4ccc(-n5nc(C)cc5C)cc4)cc(C4=CCCN(C(=O)CCn5ccnn5)C4)c(F)c3[nH]2)CC1 [Example I-1114]
7,< 100,COc1ccccc1-c1cc(C2=CCCN(C(=O)CCn3ccnn3)C2)c(F)c2[nH]c(C(=O)N3CCc4cc(C(F)(F)F)ccc4C3)cc12 [Example I-977]
8,< 100,COc1ccncc1-c1cc(C2=CCCN(C(C)=O)C2)c(F)c2[nH]c(C(=O)N(C)C)cc12 [Example I-1094]
9,< 100,COc1ccccc1C(=O)N1CCN(C(=O)c2cc3c(-c4ccccc4OC)cc(C4=CCCN(C(=O)CCn5ccnn5)C4)c(F)c3[nH]2)CC1 [Example I-991]
10,< 100,COc1cc(F)cnc1N1CCN(C(=O)c2cc3c(-c4ccc(C5CC5)cc4)cc(C4=CCCN(C(=O)CCn5ccnn5)C4)c(F)c3[nH]2)CC1 [Example I-1157]
11,1000 to 10000,CCc1ccncc1-c1cc(C2=CCCN(C(=O)C(C)C)C2)c(F)c2[nH]c(C(=O)N3CCN(c4ncc(F)cc4OC)CC3)cc12 [Example I-1044]
12,100 to 1000,CC(=O)N1CCC=C(c2cc(-c3ccccc3C(N)=O)c3cc(C(=O)N(C)C)[nH]c3c2F)C1 [Example I-1099]
13,100 to 1000,COc1ccccc1/C=C/c1cc(C2=CCCN(C(=O)CCn3ccnn3)C2)c(F)c2[nH]c(C(=O)N3CCN(c4ncc(F)cc4OC)CC3)cc12 [Example I-1130]
14,< 100,COc1cc(F)cnc1N1CCN(C(=O)c2cc3c(-c4ccc(OC5CCCCO5)cc4)cc(C4=CCCN(C(=O)CCn5ccnn5)C4)c(F)c3[nH]2)CC1 (stereo not shown) [Example I-1166]
15,< 100,COc1cc(F)cnc1N1CCN(C(=O)c2cc3c(-c4ccc(C(=O)N5CCCC5)c(F)c4)cc(C4=CCCN(C(=O)CCn5ccnn5)C4)c(F)c3[nH]2)CC1 [Example I-1144]
16,< 100,"CNc1ccc(-c2cc([C@H]3CCCN(C(=O)CCn4ccnn4)C3)cc3[nH]c(C(=O)N(C)C)cc23)c(OC)c1 (single isomer, unassigned) [Example I-1194]"
17,< 100,CN(C)C(=O)c1cc2cc(C3=CCCN(C(=O)CCn4ccnn4)C3)cc(CN3CCNCC3)c2o1 [Example I-1179]
18,< 100,CN(C)C(=O)c1cc2cc(C3=CCCN(C(=O)CCn4ccnn4)C3)cc(-c3cnn(C)c3)c2o1 [Example I-1077]
19,< 100,COc1cc(F)cnc1N1CCN(C(=O)c2cc3c(-c4ccc(C(C)N5CCOCC5)cc4)cc(C4=CCCN(C(=O)CCn5ccnn5)C4)c(F)c3[nH]2)CC1 (stereo not shown) [Example I-1121]
20,< 100,CCn1nccc1-c1cc(C2=CCCN(C(C)=O)C2)c(F)c2[nH]c(C(=O)N3Cc4cnn(CC)c4C3)cc12 [Example I-1176]
21,< 100,COc1ccccc1-c1cc(C2=CCCN(C(=O)CCn3ccnn3)C2)c(F)c2[nH]c(C(=O)N3CCN(Cc4cccn(C)c4=O)CC3)cc12 [Example I-1198]

# Source: patent US20250214977A1, “STAT6 INHIBITORS AND USES THEREOF” (Kymera Therapeutics, Inc., priority 2024, published 2025)
